Measurements reported in BindingDB's records for doi:10.1016/j.bmc.2015.10.018 (Aristotle University of Thessaloniki, 2015).

Experiments:
Carbonic anhydrase 2 [1] = target: T1, Carbonic anhydrase 2 (Homo sapiens, UniProt P00918); experiment: ChEBML_1523541; settings: 25 °C
Description: (§1) Inhibition of human recombinant carbonic anhydrase 2 preincubated for 15 mins at room temperature/6 hrs at 4 deg C by stopped-flow CO2 hydration assay

Carbonic anhydrase 1 [2] = target: T2, Carbonic anhydrase 1 (Homo sapiens, UniProt P00915); experiment: ChEBML_1523540; settings: 25 °C
T2 sequence (P00915 whole entry): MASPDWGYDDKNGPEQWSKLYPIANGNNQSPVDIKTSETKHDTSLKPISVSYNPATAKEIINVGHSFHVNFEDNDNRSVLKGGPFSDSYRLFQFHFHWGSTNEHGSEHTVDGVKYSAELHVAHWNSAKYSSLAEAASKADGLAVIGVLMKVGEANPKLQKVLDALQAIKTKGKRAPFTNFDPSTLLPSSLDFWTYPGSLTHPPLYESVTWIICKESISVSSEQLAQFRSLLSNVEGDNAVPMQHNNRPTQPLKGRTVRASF
Description: Inhibition of human recombinant carbonic anhydrase 1 preincubated for 15 mins at room temperature/6 hrs at 4 deg C by stopped-flow CO2 hydration assay

Carbonic anhydrase 12 [3] = target: T3, Carbonic anhydrase 12 (Homo sapiens, UniProt O43570); experiment: ChEBML_1523544; settings: 25 °C
T3 sequence (O43570 whole entry): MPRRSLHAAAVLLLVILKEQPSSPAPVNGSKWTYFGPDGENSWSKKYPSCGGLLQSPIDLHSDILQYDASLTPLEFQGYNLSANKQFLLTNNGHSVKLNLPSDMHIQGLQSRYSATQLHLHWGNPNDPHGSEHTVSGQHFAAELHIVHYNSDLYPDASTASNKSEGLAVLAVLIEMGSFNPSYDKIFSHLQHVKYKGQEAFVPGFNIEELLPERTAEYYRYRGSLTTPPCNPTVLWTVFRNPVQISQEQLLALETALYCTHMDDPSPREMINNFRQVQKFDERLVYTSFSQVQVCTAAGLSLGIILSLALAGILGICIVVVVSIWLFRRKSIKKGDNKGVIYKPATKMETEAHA
Description: (§2) Inhibition of human recombinant carbonic anhydrase 12 preincubated for 15 mins at room temperature/6 hrs at 4 deg C by stopped-flow CO2 hydration assay

Carbonic anhydrase 1 [4] = target: T2, Carbonic anhydrase 1; experiment: Inhibition of human recombinant carbonic anhydrase 1
Carbonic anhydrase 12 [5] = target: T3, Carbonic anhydrase 12; experiment: as §2; settings: 25 °C
Carbonic anhydrase 2 [6] = target: T1, Carbonic anhydrase 2; experiment: as §1; settings: 25 °C

Ki (Carbonic anhydrase 2 [1]): 6.21 µM
Ki (Carbonic anhydrase 1 [2]): > 10 µM
Ki (Carbonic anhydrase 12 [3]): 0.0521 µM
Ki (Carbonic anhydrase 1 [4]): > 10 µM
Ki (Carbonic anhydrase 12 [5]): 0.052 µM
Ki (Carbonic anhydrase 2 [6]): 6.21 µM
SMILES: O=c1cc(O)cc2oc(-c3ccc(O)c(O)c3)c(O[C@@H]3O[C@H](CO)[C@@H](O)[C@H](O)[C@H]3O)c(O)c1-2 [Quercetin 3-O-beta-D-glucoside]
